From US10800789B2, “Antiviral compounds” (Gilead Pharmasset LLC, priority 2012, dated 2020)
Where two headings read alike, the source gives them in different places.

Key:
[1] = system: NS5A chimeric genotype 2a JFH-1 replicon with genotype 2a J6 strain NS5A gene (M31 present); experiment: Replicon assay, genotype 2a J6 NS5A chimera; type: cell-based, HCV
Outline: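 First, 3-fold serial dilutions of compound went onto replicon cells, DMSO serving as no-inhibition control and ITMN-191 at >100×EC50 as positive control. Next came 72 h incubation, lysis and Renilla luciferase measurement. Finally, EC50 was calculated by non-linear regression; replicons covered genotypes 1a H77, 1b Con1, 2a JFH-1 (L31) and J6-NS5A chimera (M31).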

[2] = system: stable HCV 2a JFH-1 Rluc replicon cells (L31 present in NS5A); experiment: Renilla luciferase HCV replicon reporter assay, genotype 2a JFH-1; type: cell-based
Outline: (§1)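 72 h compound exposure (3-fold dilutions from 10 mM DMSO stocks) of replicon cells: stable dicistronic RLuc 1a H77, 1b Con1, 2a JFH-1 (NS5A L31); J6-NS5A chimera in JFH-1 (M31), transient in Huh-Lunet or stable. Renilla luciferase read-out, non-linear regression → EC50. DMSO negative control.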

[3] = system: NS5A chimeric genotype 2a JFH-1 replicon with genotype 2b MD2b-1 strain NS5A gene (M31 present); experiment: Replicon assay, genotype 2b NS5A chimera; type: cell-based, HCV
Outline: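 EC50 was fitted by non-linear regression to Renilla luciferase signal after 72 h of exposure to 3-fold serially diluted compound (10 mM DMSO stocks). Controls were DMSO (none) and ITMN-191 above 100×EC50 (full). Chimeric 2a replicons were used either stable or transiently transfected into Huh-Lunet cells.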

[4] = system: NS5A chimeric genotype 1b Con1 replicon with genotype 3a S52 strain NS5A gene; experiment: Replicon assay, genotype 3a NS5A chimera; type: cell-based, HCV
[5] = system: stable HCV 1a RLuc replicon cells (dicistronic genotype 1a H77 replicon); experiment: Renilla luciferase HCV replicon reporter assay, genotype 1a; type: cell-based; conditions: stable 1a H77 RLuc replicon cells
Outline: as §1

[6] = system: stable HCV 1b RLuc replicon cells (dicistronic genotype 1b Con1 replicon); experiment: Renilla luciferase HCV replicon reporter assay, genotype 1b; type: cell-based; conditions: stable 1b Con1 RLuc replicon cells, 72 hours, read-out: 1b
Outline: as §1

[7] = system: NS5A chimeric genotype 1b Con1 replicon with genotype 4a ED43 strain NS5A gene; experiment: Replicon assay, genotype 4a NS5A chimera; type: cell-based, HCV
[8] = Hepatitis C virus, read-out: 2a J6 (t) (nM), genotype 2a J6 NS5A chimeric replicon (M31), transiently transfected (t) into Huh-Lunet cells
[9] = Hepatitis C virus, read-out: 2a J6 (t), transiently transfected (t) into Huh-Lunet cells, activity range
[10] = Hepatitis C virus, read-out: 2a JFH (nM), genotype 2a JFH-1 replicon (L31 in NS5A), stable cells
[11] = Hepatitis C virus, read-out: 2a JFH, stable 2a JFH-1 Rluc replicon cells, L31 in NS5A, activity range
[12] = Hepatitis C virus, 2BS, read-out: 2b (s), stably replicating replicon cells (s), activity range
[13] = Hepatitis C virus, read-out: 2b (s) (nM), genotype 2b MD2b-1 NS5A chimeric replicon (M31), stably replicating replicon cells (s)
[14] = Hepatitis C virus, read-out: 3a (s) (nM), genotype 3a NS5A chimeric replicon, stable replicon cells (s)
[15] = Hepatitis C virus, read-out: 3a (s), (s), activity range
[16] = Hepatitis C virus, 72 h, activity range
[17] = Hepatitis C virus, read-out: 4a (s) (nM), genotype 4a NS5A chimeric replicon, stable replicon cells (s)
[18] = Hepatitis C virus, read-out: 4a (s), (s), activity range
[19] = Hepatitis C virus, read-out: 2b (t) (nM), genotype 2b MD2b-1 NS5A chimeric replicon (M31), transiently transfected (t)
[20] = Hepatitis C virus, read-out: 2b (t), transiently transfected (t) into Huh-Lunet cells, activity range

Structure (SMILES)	EC50 [1, 8] [nM]	EC50 [1, 9] [nM]	EC50 [2, 10] [nM]	EC50 [2, 11] [nM]	EC50 [3, 12] [nM]	EC50 [3, 13] [nM]	EC50 [4, 14] [nM]	EC50 [4, 15] [nM]	EC50 ([5]; Hepatitis C virus, 72 h) [nM]	EC50 [5, 16] [nM]	EC50 ([6]; Hepatitis C virus, 72 h) [nM]	EC50 [7, 17] [nM]	EC50 [7, 18] [nM]	EC50 [3, 19] [nM]	EC50 [3, 20] [nM]	also measured
COC[C@H]1C[C@@H](c2ncc(-c3ccc4c(c3)COc3cc5c(ccc6nc([C@@H]7C[C@H](COC)CN7C(=O)[C@@H](NC(=O)OC)[C@@H](C)OC)[nH]c65)cc3-4)[nH]2)N(C(=O)[C@@H](NC(=O)OC)[C@@H](C)OC)C1 [EX, Methyl {(2S,3R)-3-methoxy-1-[(2S,4S)-2-(9-{2-[(2S,4S)-1-[N-(methoxycarbonyl)-O-methyl-L-threonyl]-4-(methoxymethyl)pyrrolidin-2-yl]-1H-imidazol-5-yl}-1,11-dihydroisochromeno[4′,3′:6,7]naphtho[1,2-d]imidazol-2-yl)-4-(methoxymethyl)pyrrolidin-1-yl]-1-oxobutan-2-yl}carbamate]	0.052	< 0.1	0.027	< 0.1	0.1 to 0.999	0.393	1.69	1 to 44	0.079	< 0.1	0.197	0.072	< 0.1			
COC(=O)N[C@H](C(=O)N1C[C@@H](C)C[C@H]1c1ncc(-c2ccc3c(c2)COc2cc4c(ccc5nc([C@@H]6C[C@H](C)CN6C(=O)[C@@H](NC(=O)OC)[C@@H](C)OC)[nH]c54)cc2-3)[nH]1)[C@@H](C)OC [EZ, Methyl [(2S,3R)-3-methoxy-1-{(2S,4S)-2-[9-(2-{(2S,4S)-1-[N-(methoxycarbonyl)-O-methyl-L-threonyl]-4-methylpyrrolidin-2-yl}-1H-imidazol-5-yl)-1,11-dihydroisochromeno[4′,3′:6,7]naphtho[1,2-d]imidazol-2-yl]-4-methylpyrrolidin-1-yl}-1-oxobutan-2-yl]carbamate]	0.036	< 0.1	0.016	< 0.1	0.1 to 0.999	0.262	0.263	0.1 to 0.999	0.028	< 0.1	0.084	0.025	< 0.1			
COC(=O)N[C@H](C(=O)N1C[C@@H](C)C[C@H]1c1ncc(-c2ccc3c(c2)COc2cc4c(ccc5nc([C@@H]6CC[C@H](C)N6C(=O)[C@@H](NC(=O)OC)C6CCOCC6)[nH]c54)cc2-3)[nH]1)C(C)C [FN, Methyl [(2S)-1-{(2S,4S)-2-[5-(2-{(2S,5S)-1-[(2S)-2-[(methoxycarbonyl)amino]-2-(tetrahydro-2H-pyran-4-yl)acetyl]-5-methylpyrrolidin-2-yl}-1,11-dihydroisochromeno[4′,3′:6,7]naphtho[1,2-d]imidazol-9-yl)-1H-imidazol-2-yl]-4-methylpyrrolidin-1-yl}-3-methyl-1-oxobutan-2-yl]carbamate]	0.068	< 0.1	0.028	< 0.1	0.1 to 0.999	0.142	0.084	< 0.1	0.035	< 0.1	0.053	0.02	< 0.1			
COC[C@H]1C[C@@H](c2nc(C3CC3)c(-c3ccc4c(c3)COc3cc5c(ccc6nc([C@@H]7CC[C@H](C)N7C(=O)[C@@H](NC(=O)OC)C(C)C)[nH]c65)cc3-4)[nH]2)N(C(=O)[C@H](NC(=O)OC)c2ccccc2)C1 [FV, Methyl {(1R)-2-[(2S,4S)-2-(4-cyclopropyl-5-{2-[(2S,5S)-1-{(2S)-2-[(methoxycarbonyl)amino]-3-methylbutanoyl}-5-methylpyrrolidin-2-yl]-1,11-dihydroisochromeno[4′,3′:6,7]naphtho[1,2-d]imidazol-9-yl}-1H-imidazol-2-yl)-4-(methoxymethyl)pyrrolidin-1-yl]-2-oxo-1-phenylethyl}carbamate]														0.772	0.1 to 0.999	EC50 ([1]; read-out: 2a J6 (t), genotype 2a J6 NS5A chimeric replicon (M31), transiently transfected (t) into Huh-Lunet cells): 3.78 nM; EC50 ([1]; read-out: 2a J6 (t), transiently transfected (t) into Huh-Lunet cells, activity range): 1 to 44 nM; EC50 ([2]; read-out: 2a JFH, genotype 2a JFH-1 replicon (L31 in NS5A), stable cells): 0.111 nM; EC50 ([2]; read-out: 2a JFH, stable 2a JFH-1 Rluc replicon cells, L31 in NS5A, activity range): 0.1 to 0.999 nM; EC50 ([3]; read-out: 2b (s), genotype 2b MD2b-1 NS5A chimeric replicon (M31), stably replicating replicon cells (s)): 2.55 nM; EC50 ([3]; read-out: 2b (s), stably replicating replicon cells (s), activity range): 1 to 44 nM; EC50 ([4]; read-out: 3a (s), (s), activity range): 1 to 44 nM; EC50 ([4]; read-out: 3a (s), genotype 3a NS5A chimeric replicon, stable replicon cells (s)): 5.25 nM; EC50 ([5]; 72 hours): 0.023 nM; EC50 ([5]; 72 hours, activity range): < 0.1 nM; EC50 [6]: 0.036 nM; EC50 ([7]; read-out: 4a (s), (s), activity range): < 0.1 nM; EC50 ([7]; read-out: 4a (s), genotype 4a NS5A chimeric replicon, stable replicon cells (s)): 0.029 nM
COC[C@H]1C[C@@H](c2ncc(-c3ccc4c(c3)COc3cc5c(ccc6nc([C@@H]7C[C@H](C)CN7C(=O)[C@@H](NC(=O)OC)[C@@H](C)OC)[nH]c65)cc3-4)[nH]2)N(C(=O)[C@@H](NC(=O)OC)[C@@H](C)OC)C1 [FW, Methyl {(2S,3R)-3-methoxy-1-[(2S,4S)-2-(9-{2-[(2S,4S)-1-[N-(methoxycarbonyl)-O-methyl-L-threonyl]-4-(methoxymethyl)pyrrolidin-2-yl]-1H-imidazol-5-yl}-1,11-dihydroisochromeno[4′,3′:6,7]naphtho[1,2-d]imidazol-2-yl)-4-methylpyrrolidin-1-yl]-1-oxobutan-2-yl}carbamate]	0.104	0.1 to 0.999	0.054	< 0.1	0.1 to 0.999	0.773	1.17	1 to 44	0.121	0.1 to 0.999	0.187	0.08	< 0.1	0.399	0.1 to 0.999	
COC[C@H]1C[C@@H](c2ncc(-c3ccc4c(c3)COc3cc5c(ccc6nc([C@@H]7CC[C@H](C)N7C(=O)[C@@H](NC(=O)OC)[C@@H](C)OC)[nH]c65)cc3-4)[nH]2)N(C(=O)[C@@H](NC(=O)OC)[C@@H](C)OC)C1 [FX, Methyl {(2S,3R)-3-methoxy-1-[(2S,5S)-2-(9-{2-[(2S,4S)-1-[N-(methoxycarbonyl)-O-methyl-L-threonyl]-4-(methoxymethyl)pyrrolidin-2-yl]-1H-imidazol-5-yl}-1,11-dihydroisochromeno[4′,3′:6,7]naphtho[1,2-d]imidazol-2-yl)-5-methylpyrrolidin-1-yl]-1-oxobutan-2-yl}carbamate]	0.064	< 0.1	0.024	< 0.1	0.1 to 0.999	0.288	0.243	0.1 to 0.999	0.041	< 0.1	0.06	0.031	< 0.1	0.122	0.1 to 0.999	
COC(=O)N[C@H](C(=O)N1[C@@H](C)CC[C@H]1c1nc(C2CC2)c(-c2ccc3c(c2)COc2cc4c(ccc5nc([C@@H]6CC[C@H](C)N6C(=O)[C@@H](NC(=O)OC)[C@@H](C)OC)[nH]c54)cc2-3)[nH]1)[C@@H](C)OC [GC, Methyl [(2S,3R)-1-{(2S,5S)-2-[9-(4-cyclopropyl-2-{(2S,5S)-1-[N-(methoxycarbonyl)-O-methyl-L-threonyl]-5-methylpyrrolidin-2-yl}-1H-imidazol-5-yl)-1,11-dihydroisochromeno[4′,3′:6,7]naphtho[1,2-d]imidazol-2-yl]-5-methylpyrrolidin-1-yl}-3-methoxy-1-oxobutan-2-yl]carbamate]	0.181	0.1 to 0.999	0.063	< 0.1	0.1 to 0.999	0.117	0.14	0.1 to 0.999	0.013	< 0.1	0.022	0.013	< 0.1			EC50 ([4]; Hepatitis C virus, read-out: 3a (t) (nM), genotype 3a NS5A chimeric replicon, transiently transfected (t)): 0.032 nM; EC50 ([4]; Hepatitis C virus, read-out: 3a (t), transiently transfected (t) into Huh-Lunet cells, activity range): < 0.1 nM
